Non-standard residues stand in square brackets, D forms with d. Nle = CCCC[C@H](N)C(=O)O
How the values were obtained:
[1] = target: T1, wild-type human melanocortin 4 receptor (WT-hMC4R) (Homo sapiens, UniProt P32245); test: Cyclic AMP assay (HTRF), antagonist competition against NDP-α-MSH; assay type: cell-based; conditions: HEK293T cells expressing double-tagged WT-hMC4R; cAMP accumulation; 1 hour compound then 4 nM NDP-α-MSH 30 min
T1 construct: expressed in transfected cells; cDNA from UMR cDNA resource center
Procedure, shortened: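 HEK293T cells stably expressing N-terminal 3xHA, C-terminal venus-YFP tagged WT-hMC4R, in D-PBS with 0.75 mM IBMX; compound (0.01 nM-10 μM) 1 h at 37° C, then 4 nM NDP-α-MSH 30 min. cAMP by HTRF competitive immunoassay; IC50 from sigmoidal variable-slope fit.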

MC4R = conditions: cited from earlier work
[2] = in vivo; cited from earlier work
MC4R/MC5R = conditions: cited from earlier work
MC4R/MC3R = conditions: cited from earlier work

T1 sequence (P32245 whole entry): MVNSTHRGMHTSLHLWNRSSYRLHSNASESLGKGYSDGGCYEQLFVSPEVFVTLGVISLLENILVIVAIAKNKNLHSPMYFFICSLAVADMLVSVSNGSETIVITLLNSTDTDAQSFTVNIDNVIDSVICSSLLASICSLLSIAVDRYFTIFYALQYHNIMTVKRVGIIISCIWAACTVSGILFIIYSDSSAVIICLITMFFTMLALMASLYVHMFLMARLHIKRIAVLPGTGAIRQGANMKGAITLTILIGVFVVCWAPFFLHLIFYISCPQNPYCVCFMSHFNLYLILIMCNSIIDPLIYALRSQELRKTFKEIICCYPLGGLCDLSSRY

IC50 [1] [nM]	Molecule	also measured
1000 to 5000	CCCNCCCc1c(-c2ccc(OC)cc2)nn2ccc(C(=O)N(CCC(C)C)CCC(C)C)cc12 [Example 163]	–
< 500	COc1ccc(-c2nn3ccc(C(=O)N(CCC(C)C)CCC(C)C)cc3c2CCCN2CCCCC2)cn1 [Example 164, N,N-diisopentyl-2-(6-methoxypyridin-3-yl)-3-(3-(piperidin-1-yl)propyl)pyrazolo[1,5-a]pyridine-5-carboxamide]	–
< 500	CN=C(c1ccn2nc(-c3ccccc3)c(CCCN3CCCCC3)c2c1)N(CCC(C)C)CCC(C)C [Example 165, N,N-diisopentyl-N′-methyl-2-phenyl-3-(3-(piperidin-1-yl)propyl)pyrazolo[1,5-a]pyridine-5-carboximidamide]	–
1000 to 5000	CCOc1ccc(-c2nn3ccc(C(=O)N(CCC(C)C)CCC(C)C)cc3c2CCCN2CCOCC2)cc1 [Example 166]	–
5000 to 15000	CC(C)CCN(CCC(C)C)C(=O)c1ccn2nc(C(=O)N3CCOCC3)c(/C=C/CN3CCCCC3)c2c1 [Example 167]	–
500 to 1000	COc1ccc(-c2nn3ccc(C(=O)N(CCC(C)C)CCC(C)C)cc3c2CCCN2CCCCC2C)cc1 (stereo not shown) [Example 168]	–
500 to 1000	COc1ccc(-c2nn3ccc(C(=O)N(CCC(C)C)CCC(C)C)cc3c2/C=C/CN2CCCCC2C)cc1 (stereo not shown) [Example 169]	–
–	Ac-Nle-Gly-Lys-D-Nal(2)-Arg-Trp-Gly-NH(2)	activity in vivo (MC4R): active in vivo; blood-brain barrier crossing [2]: crossed the blood-brain barrier; selectivity for MC4R as compared to MC5R (MC4R/MC5R): 109 fold; selectivity for MC4R as compared to MC3R (MC4R/MC3R): 34 fold
–	Ac-Nle-Gly-Lys-D-Phe-Arg-Trp-Gly-NH(2) (Ac-[Nle]GK[dF]RWG-NH2; SMILES CCCC[C@H](NC(C)=O)C(=O)NCC(=O)N[C@@H](CCCCN)C(=O)N[C@H](Cc1ccccc1)C(=O)N[C@@H](CCCNC(=N)N)C(=O)N[C@@H](Cc1c[nH]c2ccccc12)C(=O)NCC(N)=O)	activity in vivo (MC4R): active in vivo; blood-brain barrier crossing [2]: crossed the blood-brain barrier; selectivity for MC4R as compared to MC5R (MC4R/MC5R): 110 fold; selectivity for MC4R as compared to MC3R (MC4R/MC3R): 90 fold
1000 to 5000	N,N-Diisopentyl-2-(4-methoxyphenyl)-3-(3-(piperidin-1-yl)propyl)pyrazolo[1,5-a]pyrimidine-5-carboxamide [Example 89]	–
